# Article PMC9220408, “Enhanced Antibacterial Activity of Dermaseptin through Its Immobilization on Alginate Nanoparticles—Effects of Menthol and Lactic Acid on Its Potentialization” (Antibiotics, 2022)
# Ends that are not written are not given here.
# Key:
# [1] = tested on: E. coli 184
# Description: (§1) The minimum inhibitory concentration (MIC) of the aforementioned formulations was determined in triplicate in 96-well microtiter plates using the broth microdilution method. Fresh colonies of E. coli were sub-cultured in Mueller–Hinton broth (Sigma-Aldrich) and were grown at 37 °C overnight on a rotary shaker at 160 rpm. […] The plates were incubated for 24 h at 37 °C, and inhibition of growth was measured at 600 nm with a spectrophotometer ELx808^tm (BioTek, Winoosky, VT, USA).
# The ability of these new formulations to resist the conditions of the gastrointestinal tract (GIT) environment was determined as previously described. […]
# To this end, we used pepsin, a digestive enzyme from the stomach, and active at pH 3, trypsin and chymotrypsin, which are synthesized in the pancreas and secreted in the small intestine, active between pH 6 and pH 8.
# [2] = tested on: CHO (Chinese Hamster Ovary) cells; settings: DRS-B2 at 39.7 µg/mL (10 µM); cited from earlier work
# [3] = tested on: IPEC-1 cells; test: Cytotoxicity assay (CCK8); settings: 24 h, 37 °C, CCK8, % of non-treated cells
# Description: The cytotoxicity assay was performed as previously reported. Briefly, human colon carcinoma (HT29) and porcine intestinal (IPEC-1) cells (Sigma-Aldrich) were cultivated in Dulbecco’s Modified Eagle Medium (DMEM, Gibco, Thermo Fisher, Waltham, MA, USA) in 96-well-tissue culture plates for 48–72 h at 37 °C, in atmosphere containing 5% CO2, until the formation of a continuous confluent cell culture on the bottom of each well. […] The required concentrations were prepared in DMEM without antibiotics and serum and were added to the HT29/IPEC-1 cells in the wells, after washing with the same medium. The treated cells were then incubated for 24 h at 37 °C, in atmosphere containing 5% CO2. To assess the cell viability of the treated HT29/IPEC-1 cells, CCK8 assay (Dojindo Molecular Technologies, Tokyo, Japan) was realized according to the supplier recommendations. An amount of 150 µL of DMEM containing 7.5 µL of CCK-8 reagents were added to each well, and cells were incubated for 2 h. Plates were read at 450 nm in a microplate reader spectrophotometer (Xenius, Safas, Monaco).
# [4] = tested on: E. coli ATCC 8739; format: cell-based, Escherichia coli; settings: broth microdilution, Mueller-Hinton broth, 24 h, 37 °C, OD 600 nm, triplicate; MIC as lowest concentration of DRS-B2 peptide; colistin-sensitive strain
# Description: (§2) The Escherichia coli (E. coli) strains used in this study included E. coli ATCC 8739 and E. coli 184, which is resistant to colistin. […] E. coli strains were grown at 37 °C in Brain Heart Infusion (BHI) medium (Sigma-Aldrich, St. Louis, MA, USA).
# as §1
# [5] = tested on: E. coli 184; format: cell-based, Escherichia coli; settings: broth microdilution, Mueller-Hinton broth, 24 h, 37 °C, OD 600 nm, triplicate; MIC as lowest concentration of DRS-B2 peptide; colistin-resistant strain (mcr-1)
# Description: as §2, §1
# [6] = Size (DLS) and zeta potential; format: physicochemical; settings: pH 6.3; Alg NPs 500 µg/mL, DRS-B2 40 µg/mL
# Description: The concentration of Alg NPs has been set to 500 µg/mL in order to allow a good dispersion and avoid any aggregation or sedimentation that could interfere with the adsorption. […]
# [7] = tested on: MCF-7 (breast cancer) cells; settings: MCF-7, inhibition of thymidine incorporation; cited from earlier work
# From the text: Of note, though many peptides endowed with biological functions, such as inhibitory activities, could be hemolytic, their combination with nanoparticles frequently allows them to discard this adverse trait. Charpentier et al. focused on the cytotoxicity of dermaseptin B3 and B4 on mammalian cells. These authors evaluated dermaseptin B3 and B4 abilities to inhibit thymidine incorporation into transformed human MCF-7 (breast cancer) cells. The results obtained unveiled 50% cytotoxicity when DRS-B3 was used at 27.8 µg/mL (10 µM). However, Galanth et al. reported that wh ...
Substance,"MICs of DRS-B2, Treatment with Pepsin ([1]; 30 min at pH 3 with pepsin (15 U/mL) and then 2 h at pH 6, 20 mM PBS, 39 °C at 140 rpm)","MICs of DRS-B2, Treatment with Digestive Enzymes ([1]; 30 min at pH 3 with pepsin (15 U/mL) and then 2 h at pH 6 with trypsin (40 U/µL) + chymotrypsin (5 U/mL), 20 mM PBS, 39 °C at 140 rpm)","MICs of DRS-B2, Treatment with pH Variation Only ([1]; incubation 30 min at pH 3 and then 2 h at pH 6, 20 mM PBS, 39 °C at 140 rpm, no enzymes)","MICs of DRS-B2, Without Treatment ([1]; no physical or enzymatic treatment)",toxic effect on CHO cells (in words) [2],percentage of survival of IPEC-1 cell line ([3]; DRS-B2 at 30 µg/mL (alone or adsorbed on Alg NPs)),percentage of survival of IPEC-1 cell line ([3]; DRS-B2 at 125 µg/mL (alone or adsorbed on Alg NPs)),MIC E. coli ATCC8739 [4],MIC E. coli 184 [5],Zeta Potential (ζ) [6],concentration giving 50% cytotoxicity [7]
"GLWSKIKEVGKEAAKAAAKAAGKAALGAVSEAV-NH2 [DRS-B2, Dermaseptin B2]",≥10 µg/mL,≥10 µg/mL,10 µg/mL,7.5 µg/mL,not any toxic effect,87%,68%,3.75 µg/mL,7.5 µg/mL,+23 mV,–
dermaseptin B3 [DRS-B3],–,–,–,–,–,–,–,–,–,–,27800 ng/mL
